Laboratory results: patent US8003678B2, “Therapeutic substituted thiazolidinones, oxazolidinones, and related compounds” (Allergan, Inc., priority 2006, dated 2011)

Target: EP2 (Homo sapiens, UniProt P43116)
Test: EP2 cAMP
Format: cell-based
Text: U.S. patent application Ser. No. 11/553,143, filed on Oct. 26, 2006, incorporated by reference herein, describes the methods used to obtain the in vitro data in the table below.

Sequence of EP2 (P43116 whole entry): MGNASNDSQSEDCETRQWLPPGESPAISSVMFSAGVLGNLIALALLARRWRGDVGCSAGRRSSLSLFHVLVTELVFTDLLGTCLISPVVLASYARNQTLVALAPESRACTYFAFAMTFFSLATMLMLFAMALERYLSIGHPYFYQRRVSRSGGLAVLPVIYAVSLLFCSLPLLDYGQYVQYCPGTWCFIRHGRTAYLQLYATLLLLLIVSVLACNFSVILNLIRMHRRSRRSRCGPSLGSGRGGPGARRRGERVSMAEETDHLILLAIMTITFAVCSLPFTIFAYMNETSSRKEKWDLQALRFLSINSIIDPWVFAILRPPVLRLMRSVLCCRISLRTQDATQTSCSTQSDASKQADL

| Structure (SMILES) | EC50 |
| --- | --- |
| CCCCCC(O)c1ccc(N2C(=O)CSC2CCCc2ccc(C(=O)O)s2)cc1 (centres unmarked) | 515 nM |
| CCCCCC(O)c1ccc(N2C(=O)COC2CCCc2ccc(C(=O)O)s2)cc1 (centres unmarked) | 0.06 nM |
